Drawing on patent US20220281866A1, “5,8-DISUBSTITUTED-[1,2,4]TRIAZOLO[1,5-A]PYRIDINYL AND 5,8-DISUBSTITUTED-IMIDAZO[1,2-A]PYRIDINE DERIVATIVES USEFUL AS INHIBITORS OF ENTEROPEPTIDASE” (Janssen Pharmaceutica NV, priority 2019, published 2022), this text covers inhibition and kinact/KI for seven compounds.

The target of experiment [1] is T1, Recombinant full-length human EP (Enteropeptidase) (Homo sapiens, UniProt P98073).
T1 construct: Recombinant full-length human EP (PeproTech, Cat #450-48C); purchased PeproTech 450-48C
Kind of experiment: In vitro inhibition potencies against Enteropeptidase (EP), fluorescent peptide GDDDDK-naphthylamine substrate. In kind it is biochemical. As to conditions: 300 μM substrate, 1.25 nM EP; for inhibition at 0.1 µM: compound 0.1 μM; for inhibition at 1 µM: compound 1 μM; for inhibition at 10 µM: compound 10 μM; for kinact/KI: 12-point dose-dependence, time-dependent inhibition, duplicate dilutions, read-out: kinact/KI^App.

The target of the next experiment is T2, Bovine trypsin (Bos taurus, UniProt P00760).
T2 construct: purchased Sigma-Aldrich T1426
T2 sequence (P00760 24-246): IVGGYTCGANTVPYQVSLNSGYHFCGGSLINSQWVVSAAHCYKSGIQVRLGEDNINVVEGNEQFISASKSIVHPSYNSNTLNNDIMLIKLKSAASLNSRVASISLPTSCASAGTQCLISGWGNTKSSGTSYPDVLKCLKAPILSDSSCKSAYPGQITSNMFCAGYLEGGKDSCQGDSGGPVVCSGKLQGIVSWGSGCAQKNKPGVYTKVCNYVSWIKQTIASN
The experiment in a line: Biochemical Assay of Trypsin (T), H-D-CHA-AR-AMC substrate. As to conditions: 15 μM substrate, 0.025 nM Trypsin; for inhibition at 0.1 µM: compound 0.1 μM; for inhibition at 1 µM: compound 1 μM; for inhibition at 10 µM: compound 10 μM; for kinact/KI: 12-point dose-dependence, time-dependent inhibition, duplicate dilutions, read-out: Kinact/KI^App.

T1 sequence (P98073 whole entry): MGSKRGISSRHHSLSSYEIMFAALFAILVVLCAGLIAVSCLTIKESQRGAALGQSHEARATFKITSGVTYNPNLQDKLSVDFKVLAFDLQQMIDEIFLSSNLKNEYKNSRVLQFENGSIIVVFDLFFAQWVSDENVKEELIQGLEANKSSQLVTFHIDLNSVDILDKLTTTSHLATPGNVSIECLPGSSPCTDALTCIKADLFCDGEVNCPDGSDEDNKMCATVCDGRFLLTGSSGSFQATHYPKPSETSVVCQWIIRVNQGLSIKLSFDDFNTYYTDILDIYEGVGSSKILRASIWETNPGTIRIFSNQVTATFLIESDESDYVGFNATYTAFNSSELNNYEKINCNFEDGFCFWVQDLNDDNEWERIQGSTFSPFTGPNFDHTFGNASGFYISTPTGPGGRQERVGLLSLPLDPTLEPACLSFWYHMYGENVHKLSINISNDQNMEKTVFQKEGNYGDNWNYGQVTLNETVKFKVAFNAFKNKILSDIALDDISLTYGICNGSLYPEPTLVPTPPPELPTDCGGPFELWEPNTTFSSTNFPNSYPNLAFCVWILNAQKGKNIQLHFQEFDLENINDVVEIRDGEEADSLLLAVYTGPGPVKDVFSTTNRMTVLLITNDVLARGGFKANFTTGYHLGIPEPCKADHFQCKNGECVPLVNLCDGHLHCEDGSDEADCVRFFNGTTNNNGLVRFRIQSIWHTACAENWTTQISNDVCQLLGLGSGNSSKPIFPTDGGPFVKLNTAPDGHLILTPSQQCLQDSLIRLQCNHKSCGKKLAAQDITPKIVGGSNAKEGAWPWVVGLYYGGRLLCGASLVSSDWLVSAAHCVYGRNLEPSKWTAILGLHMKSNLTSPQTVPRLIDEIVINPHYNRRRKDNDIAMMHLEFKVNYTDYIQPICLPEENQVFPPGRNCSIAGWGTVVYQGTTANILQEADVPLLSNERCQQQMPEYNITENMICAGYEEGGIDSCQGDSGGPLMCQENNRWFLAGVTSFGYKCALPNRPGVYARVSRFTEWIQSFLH

As for `CONC(=N)c1ccc(C(=O)Oc2ccc(CC(=O)O)n3ncnc23)cc1` [Compound 36, 2-(8-(4-(N-methoxycarbamimidoyl)benzoyloxy)-[1,2,4]triazolo[1,5-a]pyridin-5-yl)acetic acid], in experiment [1], the inhibition (commonly the relative decrease from the control value, in per cent) at 0.1 µM was 2.4%; the inhibition at 1 µM worked out at 9.1%; the inhibition at 10 µM came out at 34%. Further, on Bovine trypsin, the inhibition at 0.1 µM was -3.1%, the inhibition at 1 µM was -3.3% and the inhibition at 10 µM was 18.2%.
As for `CC(=N)Nc1ccc(C(=O)Oc2ccc(CC(=O)O)n3ncnc23)cc1` [Compound 37, 2-(8-(4-acetimidamidobenzoyloxy)-[1,2,4]triazolo[1,5-a]pyridin-5-yl)acetic acid], in experiment [1], the inhibition at 0.1 µM was 47.8%, the inhibition at 1 µM turned out to be 99.6% and the inhibition at 10 µM was 100%. Also, at Bovine trypsin, the inhibition at 0.1 µM was determined as 11.5%, the inhibition at 1 µM worked out at 68% and the inhibition at 10 µM turned out to be 99.7%.
In the case of `N#CNC(=N)c1ccc(C(=O)Oc2ccc(CC(=O)O)n3ncnc23)cc1` [Compound 38, 2-(8-(4-(N-cyanocarbamimidoyl)benzoyloxy)-[1,2,4]triazolo[1,5-a]pyridin-5-yl)acetic acid], in experiment [1], the inhibition at 0.1 µM is -1.6%, the inhibition at 1 µM was found to be 1.9% and the inhibition at 10 µM worked out at 13.6%. At Bovine trypsin, the inhibition at 0.1 µM is -2.1%, the inhibition at 1 µM amounted to 2.5% and the inhibition at 10 µM stood at 35.8%.
Consider `N=C(NN)c1ccc(C(=O)Oc2ccc(CC(=O)O)n3ncnc23)cc1` [Compound 39, 2-(8-(4-(hydrazinyl(imino)methyl)benzoyloxy)-[1,2,4]triazolo[1,5-a]pyridin-5-yl)acetic acid], for which, in experiment [1], the inhibition at 0.1 µM turned out to be 0.5%, the inhibition at 1 µM came out at 12.2% and the inhibition at 10 µM was 51.8%. On Bovine trypsin, the inhibition at 0.1 µM came out at 1.6%, the inhibition at 1 µM came out at 2.8% and the inhibition at 10 µM turned out to be 25.5%.
With `C/C(=N\O)Nc1ccc(C(=O)Oc2ccc(CC(=O)O)n3ncnc23)cc1` [Compound 40, (E)-2-(8-(4-(N′-hydroxyacetimidamido)benzoyloxy)-[1,2,4]triazolo[1,5-a]pyridin-5-yl)acetic acid], in experiment [1], the inhibition at 0.1 µM is -10.7%, the inhibition at 1 µM is -10.1% and the inhibition at 10 µM was -10.8%. At Bovine trypsin, the inhibition at 0.1 µM was -8%, the inhibition at 1 µM is -0.4% and the inhibition at 10 µM is 10.1%.
Turning to `C#CCOCCOCC#Cc1cc(NC(=N)N)ccc1C(=O)Oc1ccc(CC(=O)O)n2ncnc12` [Compound 42, 2-(8-((4-guanidino-2-(3-(2-(prop-2-yn-1-yloxy)ethoxy)prop-1-yn-1-yl)benzoyl)oxy)-[1,2,4]triazolo[1,5-a]pyridin-5-yl)acetic acid], in experiment [1], the kinact/KI turned out to be 52800 M⁻¹ s⁻¹, the inhibition at 0.1 µM was determined as 62.3%, the inhibition at 1 µM amounted to 98.5% and the inhibition at 10 µM amounted to 99.8%. For the same compound, at Bovine trypsin, the kinact/KI was determined as 59400 M⁻¹ s⁻¹, the inhibition at 0.1 µM turned out to be 52.9%, the inhibition at 1 µM is 99.6% and the inhibition at 10 µM stood at 100%.
Regarding `C#CCOCC#Cc1cc(NC(=N)N)ccc1C(=O)Oc1ccc(CC(=O)O)n2ncnc12` [Compound 43, 2-(8-((4-Guanidino-2-(3-(prop-2-yn-1-yloxy)prop-1-yn-1-yl)benzoyl)oxy)-[1,2,4]triazolo[1,5-a]pyridin-5-yl)acetic acid], in experiment [1], the kinact/KI was 12300 M⁻¹ s⁻¹, the inhibition at 0.1 µM was determined as 56.5%, the inhibition at 1 µM was determined as 99.9% and the inhibition at 10 µM was determined as 99.9%. In addition, on Bovine trypsin, the kinact/KI was determined as 40100 M⁻¹ s⁻¹, the inhibition at 0.1 µM was determined as 76.1%, the inhibition at 1 µM worked out at 99.5% and the inhibition at 10 µM is 100%.
